This is an account of results in paper PMC3912022, “A Fluorescence-Based Assay for Measuring the Redox Potential of 5-Lipoxygenase Inhibitors” (PLoS ONE, 2014).

Format in all cases: biochemical
In assay [1] the target is T1, Human recombinant 5-LO (Homo sapiens, UniProt P09917).
T1 construct: purchased Cayman Chemical
T1 sequence (P09917 1-674): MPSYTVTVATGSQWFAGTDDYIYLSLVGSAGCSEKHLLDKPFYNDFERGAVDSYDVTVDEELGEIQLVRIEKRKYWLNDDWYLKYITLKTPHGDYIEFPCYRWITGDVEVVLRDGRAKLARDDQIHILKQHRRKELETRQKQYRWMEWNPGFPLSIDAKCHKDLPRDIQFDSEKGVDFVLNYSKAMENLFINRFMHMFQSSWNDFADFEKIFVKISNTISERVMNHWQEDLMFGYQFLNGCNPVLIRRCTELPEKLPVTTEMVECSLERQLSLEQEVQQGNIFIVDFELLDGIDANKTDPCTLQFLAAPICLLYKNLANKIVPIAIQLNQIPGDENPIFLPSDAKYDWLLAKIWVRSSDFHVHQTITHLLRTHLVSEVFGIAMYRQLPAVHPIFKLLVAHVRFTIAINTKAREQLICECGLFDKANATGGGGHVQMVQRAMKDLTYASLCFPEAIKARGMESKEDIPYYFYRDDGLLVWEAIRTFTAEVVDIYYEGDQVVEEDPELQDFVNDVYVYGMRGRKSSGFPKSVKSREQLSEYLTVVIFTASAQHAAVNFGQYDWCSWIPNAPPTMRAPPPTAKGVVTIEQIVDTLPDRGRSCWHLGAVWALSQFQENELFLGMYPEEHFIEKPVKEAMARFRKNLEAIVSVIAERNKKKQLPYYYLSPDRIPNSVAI
Nature of the assay: Redox fluorescence assay (remaining 13(S)-HpODE by H2DCFDA fluorescence after pseudo-peroxidase reaction). From the text:
(§1) Lipid peroxide is consumed when 5-LO is activated to the ferric iron form. The enzyme remains activated during the dioxygenation reaction cycle. If a redox inhibitor is present, it reduces the catalytic iron into the ferrous form and inhibits the enzyme reaction. Another lipid peroxide must be consumed to re-activate 5-LO to the ferric form. As a result, reductions in the amount of lipid peroxide in the reaction mixture signify redox activity. […] The absorbance-based method measures the amount of peroxide by its absorbance at 234 nm, and the fluorescence-based method measures it by analyzing its reaction with H2DCFDA.
H2DCF-DA (60 µM) was pre-cleaved by 5-LO crude lysate in the reaction buffer (50 mM Tris, pH 7.5, 2 mM ethylenediaminetetraacetic acid [EDTA], 2 mM CaCl2, and 10 µM adenosine triphosphate [ATP]) for more than 10 minutes before the main reaction, as previously reported. In a 384-well plate, 10 µl of 450 mU/µl enzyme solution was distributed and mixed with 10 µl of inhibitor solution with various concentrations. 13(S)-HpODE (10 µM; 20 µl) was added to each well to start the reaction. After 3 minutes, pre-cleaved H2DCF-DA dye (20 µl) was added and incubated for more than 10 minutes. The fluorescence signal was measured using a fluorometer at excitation and emission wavelengths of 485 and 530 nm, respectively. All steps were carried out at room temperature.
The highest and lowest compound concentrations in the serially diluted set were 100 µM and 1.69 nM, respectively. […] The final DMSO amount in the reaction mixture was kept at 1% throughout the experiments. […] Four wells without any inhibitors represented the “100% peroxide” control wells, and the average fluorescence values in the control wells were used for normalization of fluorescence data. The concentration points were duplicated in each test and the concentration-dependent fluorescence data were fitted with three-parameter logistic regression in Prism using the top and bottom constraints of 100 and 0, respectively.

Assay [2] addresses T1, Human recombinant 5-LO. Nature of the assay: Redox absorbance assay (13(S)-HpODE absorbance at 234 nm, pseudo-peroxidase activity). To be noted: for Redox absorbance, Δabs: absorbance at 234 nm, change over 180 seconds, average ± SD of triplicate.
From the text: as §1
The redox absorbance assay was carried out as described by Zweifel, et al.. Specifically, 10 µl of 1 mM inhibitor solution was mixed with 490 µl of 20 µM 13-HpODE solution. After 3 minutes of incubation at room temperature, the solution was transferred to a cuvette. The reaction started when 500 µl of the 20 unit/ml enzyme solution was added to the peroxide-inhibitor mixture in the cuvette. The absorbance of 13(S)-HpODE at 234 nm was measured immediately after mixing, using a SpectraMax M5 spectrophotometer. Data points were collected for 3 minutes. The reaction buffer consisted of 50 mM potassium phosphate buffer (pH 7.6), 0.1 mM EDTA, 100 µM ATP, and 0.3 mM CaCl2.
The accuracy and efficacy of the redox absorbance assay were determined by testing the selected compounds. The absorbance of 13(S)-HpODE was measured at 234 nm, and the values were recorded every second for 3 minutes.
In theory, because the extinction coefficient of 13(S)-HpODE at 234 nm is 23,000 M^−1 cm^−1, 10 µM 13(S)-HpODE contributes a maximum of 0.23 in absorbance.

For assay [3], the target named is T1, Human recombinant 5-LO. Described as above.
Where [4] appears, read: 10 µM inhibitor, 234 nm, 3 min kinetic curve, Figure 2.

SMILES strings stand for the structures. Entries after “also recorded” stand apart in the source; their conditions may differ. Some results are limits rather than exact numbers.

Turning to `COc1ccc(/C=C2\SC(c3ccc(Cl)cc3)=NC2=O)cc1` [CAY10649, (Z)-2-(4-chlorophenyl)-5-(4-methoxybenzylidene)thiazol-4(5H)-one], the EC50 (usually the midpoint of the concentration-response curve) in assay [1] is > 100 µM. Also, in assay [2] (10 µM inhibitor), the “Redox absorbance, Δabs” value came out at 0.014±0.011.
As to `N#CC(=Cc1ccc(O)c(O)c1)C(=O)OCC=Cc1ccccc1` [CDC, cinnamyl 3,4-dihydroxy-alpha-cyanocinnamate], the EC50 in assay [1] amounted to 0.13 ± 0.17 µM. Further, the “absorbance pattern over time (redox / non-redox pattern)” value in assay [2] (setting [4]) was “perfect non-redox pattern; also recorded: increases in the absorbance assay”. Also, in assay [2] (10 µM inhibitor), the “Redox absorbance, Δabs” value is 0.015±0.005. In assay [3] (buffer of the redox fluorescence assay, Figure 4-C), the “redox activity in absorbance assay carried out in the fluorescence assay buffer” value was “redox activity was not detected”.
On to `O=C(O)C=Cc1ccc(O)c(O)c1` [Caffeic acid, 3,4-dihydroxy cinnamic acid], for which, in assay [1] (fluorescence assay, relative to stronger redox inhibitors), the “redox activity less than that of the stronger redox inhibitors” value is on record as 60%. Also, in assay [2] (setting [4]), the “absorbance pattern over time (redox / non-redox pattern)” value was “no changes in absorbance over time”. Further, in assay [2] (10 µM inhibitor), the “Redox absorbance, Δabs” value is given as 0.005±0.003.
On to `CC(Cc1ccc(O)c(O)c1)C(C)Cc1ccc(O)c(O)c1` (centres unmarked) [NDGA, 4,4′-(2,3-dimethyl-1,4-butanediyl)bis-1,2-benzenediol], for which, in assay [2] (setting [4]), the “absorbance pattern over time (redox / non-redox pattern)” value is reported as “increases in the absorbance assay”. For the same molecule, in assay [2] (10 µM inhibitor), the “Redox absorbance, Δabs” value is listed as 0.009±0.007.
As to `Cn1nccc1-c1ccc(Sc2cccc(C3(C(N)=O)CCOCC3)c2)cc1` [PF4191834], the EC50 in assay [1] was > 100 µM. Besides, in assay [2] (10 µM inhibitor), the “Redox absorbance, Δabs” value is recorded as 0.015±0.005.
Regarding `CCCCCCC(Sc1nc(Cl)cc(Nc2cccc(C)c2C)n1)C(=O)O` (centres unmarked) [YS121, 2-[[4-chloro-6-[(2,3-dimethylphenyl)amino]-2-pyrimidinyl]thio]-octanoic acid], the EC50 in assay [1] was 77.2 ± 35.1 µM. The “Redox absorbance, Δabs” value in assay [2] (10 µM inhibitor) is on record as 0.008±0.005.
In the case of `CC(c1cc2ccccc2s1)N(O)C(N)=O` (centres unmarked) [Zileuton, N-[1-benzo(b)thien-2-ylethyl]-N-hydroxy-urea], in assay [2] (setting [4]), the “absorbance pattern over time (redox / non-redox pattern)” value is on record as “clear redox pattern” and the reduction in absorbance is listed as 0.042. In addition, the “Redox absorbance, Δabs” value in assay [2] (10 µM inhibitor) was −0.025±0.018. Besides, the “share of the decrease in absorbance in the first 20 seconds” value in assay [2] (first 20 seconds of the reaction, Figure 2) is recorded as “about 50%”. The “absorbance pattern in substrate-depleted conditions” value in assay [3] (80 minutes after the start of the reaction, 234 nm, Figure 4) is on record as “increased slowly over time”.
